pKd: −log10 of the molar value. Active and inactive are the calls of the source. No cut-off for these calls is given here.
What was measured:
Type in all cases: cell membranes
[1] = Binding affinity to mangiferin receptor in rat islet cell membrane stationary phase by chromatographic analysis
Rattus norvegicus [2] = species: Rattus norvegicus; assay: Binding affinity to mangiferin receptor in rat islet cell membrane stationary phase assessed as total active binding sites per islet bed by chromatographic analysis
Rattus norvegicus [3] = species: Rattus norvegicus; assay: Binding affinity to mangiferin receptor in rat islet cell membrane stationary phase assessed as ligand-membrane complex by infrared spectroscopic analysis

O=c1c2cc(O)c(O)cc2oc2cc(O)c([C@@H]3O[C@H](CO)[C@@H](O)[C@H](O)[C@H]3O)c(O)c12 [MANGIFERIN]
pKd [1]: 6.40
Activity (Rattus norvegicus [2]): 22.7 µmol
Activity (Rattus norvegicus [3]): Active
